Experimental data taken from US9238656B2, “Imidazo[4,5-b]pyridine derivatives as ALK and JAK modulators for the treatment of proliferative disorders” (priority 2012, dated 2016).
pIC50: −log10 of the molar value. Counter-ions that a name gives are not always drawn. Like-named read-outs stand apart in the source and are kept apart here.

Key:
[1] = target: baculovirus-expressed ALK (Homo sapiens, UniProt Q9UM73); test: ALK kinase inhibition, TRF/ELISA; type: biochemical; conditions: read-out: ALK Potency
Sequence of baculovirus-expressed ALK (Q9UM73 19-1620): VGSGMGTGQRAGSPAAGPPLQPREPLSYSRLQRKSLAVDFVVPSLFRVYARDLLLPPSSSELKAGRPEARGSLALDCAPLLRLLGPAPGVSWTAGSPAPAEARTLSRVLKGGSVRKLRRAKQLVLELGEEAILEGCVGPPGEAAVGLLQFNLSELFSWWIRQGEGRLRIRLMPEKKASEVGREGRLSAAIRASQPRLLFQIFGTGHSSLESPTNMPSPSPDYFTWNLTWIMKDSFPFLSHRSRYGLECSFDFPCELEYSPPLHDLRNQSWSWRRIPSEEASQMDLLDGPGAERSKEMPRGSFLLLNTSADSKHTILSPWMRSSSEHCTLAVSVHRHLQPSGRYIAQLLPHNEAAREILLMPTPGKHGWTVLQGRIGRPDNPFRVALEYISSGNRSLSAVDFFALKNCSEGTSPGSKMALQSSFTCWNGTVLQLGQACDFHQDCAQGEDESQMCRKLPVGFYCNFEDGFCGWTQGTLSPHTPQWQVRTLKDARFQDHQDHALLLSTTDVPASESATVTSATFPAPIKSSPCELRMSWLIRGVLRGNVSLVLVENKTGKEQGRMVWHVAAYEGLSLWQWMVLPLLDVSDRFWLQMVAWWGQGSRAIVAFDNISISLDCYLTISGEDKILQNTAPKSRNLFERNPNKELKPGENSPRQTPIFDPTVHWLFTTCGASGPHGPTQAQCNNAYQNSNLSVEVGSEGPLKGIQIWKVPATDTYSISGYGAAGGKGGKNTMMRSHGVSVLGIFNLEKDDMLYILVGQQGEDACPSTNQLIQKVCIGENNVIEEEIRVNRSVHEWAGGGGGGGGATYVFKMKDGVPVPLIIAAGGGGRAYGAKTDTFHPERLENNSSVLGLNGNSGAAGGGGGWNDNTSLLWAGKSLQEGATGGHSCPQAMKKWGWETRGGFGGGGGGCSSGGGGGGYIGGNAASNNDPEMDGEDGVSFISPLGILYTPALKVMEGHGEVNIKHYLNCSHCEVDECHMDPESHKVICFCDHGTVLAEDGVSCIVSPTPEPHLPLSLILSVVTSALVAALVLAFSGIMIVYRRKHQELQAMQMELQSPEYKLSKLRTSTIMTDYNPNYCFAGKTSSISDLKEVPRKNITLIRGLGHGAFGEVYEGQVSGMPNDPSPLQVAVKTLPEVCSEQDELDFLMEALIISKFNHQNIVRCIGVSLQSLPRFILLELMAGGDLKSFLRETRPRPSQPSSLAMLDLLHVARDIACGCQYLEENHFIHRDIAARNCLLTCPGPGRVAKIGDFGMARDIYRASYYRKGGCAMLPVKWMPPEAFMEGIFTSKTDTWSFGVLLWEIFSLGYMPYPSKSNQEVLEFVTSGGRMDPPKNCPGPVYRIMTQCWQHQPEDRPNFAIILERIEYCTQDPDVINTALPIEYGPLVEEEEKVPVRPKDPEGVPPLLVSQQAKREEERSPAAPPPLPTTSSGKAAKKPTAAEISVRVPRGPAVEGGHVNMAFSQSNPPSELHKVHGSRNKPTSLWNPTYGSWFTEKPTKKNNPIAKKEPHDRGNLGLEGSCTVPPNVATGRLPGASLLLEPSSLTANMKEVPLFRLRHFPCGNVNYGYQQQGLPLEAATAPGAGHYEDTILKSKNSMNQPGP
Procedure, shortened: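 Eu-PT66 anti-phosphotyrosine TRF read-out measured phosphorylation of plate-bound GST-PLC-γ (coated at 10 μg/mL). The phosphorylation was driven by 30 ng/mL ALK for 15 minutes at 37° C.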

[2] = target: baculovirus-expressed JAK2 kinase (Homo sapiens, UniProt O60674); test: biochemical; conditions: 0.2 μM ATP; read-out: JAK2 Potency
Sequence of baculovirus-expressed JAK2 kinase (O60674 whole entry): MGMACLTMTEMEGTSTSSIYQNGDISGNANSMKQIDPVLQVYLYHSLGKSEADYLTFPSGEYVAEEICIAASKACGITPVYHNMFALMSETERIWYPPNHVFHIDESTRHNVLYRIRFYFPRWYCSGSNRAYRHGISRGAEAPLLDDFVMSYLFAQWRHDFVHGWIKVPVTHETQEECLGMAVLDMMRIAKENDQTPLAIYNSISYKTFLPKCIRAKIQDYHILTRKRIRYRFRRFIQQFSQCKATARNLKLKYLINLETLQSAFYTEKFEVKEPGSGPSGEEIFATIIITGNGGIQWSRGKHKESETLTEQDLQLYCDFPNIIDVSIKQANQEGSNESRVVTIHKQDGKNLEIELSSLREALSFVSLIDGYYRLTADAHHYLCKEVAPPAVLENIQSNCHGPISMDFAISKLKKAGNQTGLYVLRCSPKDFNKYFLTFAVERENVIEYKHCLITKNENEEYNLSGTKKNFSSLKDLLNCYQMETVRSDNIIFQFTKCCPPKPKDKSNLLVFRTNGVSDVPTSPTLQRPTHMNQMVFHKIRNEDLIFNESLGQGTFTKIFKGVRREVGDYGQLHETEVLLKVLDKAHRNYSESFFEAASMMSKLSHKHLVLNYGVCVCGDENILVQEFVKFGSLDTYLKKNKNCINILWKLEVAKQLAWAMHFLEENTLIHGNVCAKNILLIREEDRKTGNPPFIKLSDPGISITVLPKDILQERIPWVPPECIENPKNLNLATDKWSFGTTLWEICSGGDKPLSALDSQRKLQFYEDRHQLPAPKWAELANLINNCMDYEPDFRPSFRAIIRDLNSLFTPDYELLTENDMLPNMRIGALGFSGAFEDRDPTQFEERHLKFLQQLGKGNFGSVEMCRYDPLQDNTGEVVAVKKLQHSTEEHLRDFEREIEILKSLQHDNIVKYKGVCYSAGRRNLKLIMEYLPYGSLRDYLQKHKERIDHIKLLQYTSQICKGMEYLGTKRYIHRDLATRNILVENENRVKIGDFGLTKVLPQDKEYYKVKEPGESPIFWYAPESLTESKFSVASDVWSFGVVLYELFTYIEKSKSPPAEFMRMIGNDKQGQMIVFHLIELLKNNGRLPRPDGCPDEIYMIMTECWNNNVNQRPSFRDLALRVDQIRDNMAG
Procedure, shortened: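 IC50 derived by variable-slope sigmoidal fit of percent inhibition against log compound concentration. Baculovirus-expressed JAK2 (15 ng/mL) phosphorylated a plate-bound biotinylated 15-mer peptide for 20 min at room temperature; detection by time-resolved fluorescence.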

A pIC50 [1] of over 7.00 and a pIC50 [2] of over 7.00 were found for NC(=O)[C@@H]1[C@H](Nc2c(Br)cnc3[nH]c(-c4sc(N5CCCC5)nc4Cl)nc23)[C@H]2C=C[C@@H]1C2 [Compound CLXVII, (1S,2S,3R,4R)-3-[6-Bromo-2-(4-chloro-2-pyrrolidin-1-yl-thiazol-5-yl)-3H-imidazo[4,5-b]pyridin-7-ylamino]-bicyclo[2.2.1]hept-5-ene-2-carboxylic acid amide] in this work.
A pIC50 [1] of over 7.00 and a pIC50 [2] of over 7.00 were found for CN1CCN(Cc2ccc(-c3nc4c(N[C@@H]5CCCC[C@H]5NS(C)(=O)=O)c(Cl)cnc4[nH]3)cc2)CC1 [CCLIV, N-((1R,2R)-2-{6-Chloro-2-[4-(4-methyl-piperazin-1-ylmethyl)-phenyl]-3H-imidazo[4,5-b]pyridin-7-ylamino}-cyclohexyl)-methanesulfonamide] in this work.
A pIC50 [1] of 6.00 to 7.00 and a pIC50 [2] of over 7.00 were found for NC(=O)[C@@H]1[C@H](Nc2c(Cl)cnc3[nH]c(-c4cccc(Cl)c4)nc23)[C@H]2C=C[C@@H]1C2 [Compound CXL, (1S,2S,3R,4R)-3-[6-Chloro-2-(3-chloro-phenyl)-3H-imidazo[4,5-b]pyridin-7-ylamino]-bicyclo[2.2.1]hept-5-ene-2-carboxylic acid amide] in this work.
A pIC50 [1] of over 7.00 and a pIC50 [2] of under 5.00 were found for CC(C)NC(=O)[C@@H]1[C@H](Nc2c(Cl)cnc3[nH]c(-c4sc(N5CCOCC5)nc4Cl)nc23)[C@H]2C=C[C@@H]1C2 [Compound CLXIII, (1S,2S,3R,4R)-3-[6-Chloro-2-(4-chloro-2-morpholin-4-yl-thiazol-5-yl)-3H-imidazo[4,5-b]pyridin-7-ylamino]-bicyclo[2.2.1]hept-5-ene-2-carboxylic acid isopropylamide] in this work.
A pIC50 [1] of over 7.00 and a pIC50 [2] of over 7.00 were found for CC(O)CN1CCC(Oc2ccc(-c3nc4c(N[C@H]5[C@@H](C(N)=O)[C@@H]6C=C[C@H]5C6)c(Cl)cnc4[nH]3)cc2)CC1 (stereo partly drawn) [Compound CCLII, (1S,2S,3R,4R)-3-(6-chloro-2-(4-(1-(2-hydroxypropyl)piperidin-4-yloxy)phenyl)-3H-imidazo[4,5-b]pyridin-7-ylamino)bicyclo[2.2.1]hept-5-ene-2-carboxamide] in this work.
A pIC50 [1] of over 7.00 and a pIC50 [2] of over 7.00 were found for Cc1nc(C2CCN(CC(N)=O)CC2)sc1-c1nc2c(N[C@H]3[C@@H](C(N)=O)[C@@H]4C=C[C@H]3C4)c(Cl)cnc2[nH]1 [Compound LXV, (1S,2S,3R,4R)-3-{2-[2-(1-Carbamoylmethyl-piperidin-4-yl)-4-methyljj-thiazol-5-yl]-6-chloro-3H-imidazo[4,5-b]pyridine-7-ylamino}-bicyclo[2.2.1]hept-5-ene-2-carboxylic acid amide] in this work.
A pIC50 [1] of 6.00 to 7.00 and a pIC50 [2] of 5.00 to 6.00 were found for CC(C)NC(=O)[C@@H]1[C@H](Nc2c(Cl)cnc3[nH]c(-c4sc(N5CC[C@@H](O)C5)nc4Cl)nc23)[C@H]2C=C[C@@H]1C2 [Compound CLXIX, (1S,2S,3R,4R)-3-{6-Chloro-2-[4-chloro-2-((R)-3-hydroxy-pyrrolidin-1-yl)-thiazol-5-yl]-1H-imidazo[4,5-b]pyridin-7-ylamino}-bicyclo[2.2.1]hept-5-ene-2-carboxylic acid isopropylamide] in this work.
A pIC50 [1] of over 7.00 and a pIC50 [2] of over 7.00 were found for CN1CCN(CCOc2ccc(-c3nc4c(N[C@H]5[C@@H](C(N)=O)[C@@H]6C=C[C@H]5C6)c(Cl)cnc4[nH]3)cc2)CC1 [Compound CCL, (1S,2S,3R,4R)-3-(6-chloro-2-(4-(2-(4-methylpiperazin-1-yl)ethoxy)phenyl)-3H-imidazo[4,5-b]pyridin-7-ylamino)bicyclo[2.2.1]hept-5-ene-2-carboxamide] in this work.
A pIC50 [1] of 6.00 to 7.00 and a pIC50 [2] of 6.00 to 7.00 were found for COc1cc(N2CCOCC2)ccc1-c1nc2c(NC34CCC(C)(C(=O)C3)C4(C)C)c(Cl)cnc2[nH]1 (stereo not shown) [Compound CC, 4-(6-chloro-2-(2-methoxy-4-morpholinophenyl)-3H-imidazo[4,5-b]pyridin-7-ylamino)-1,7,7-trimethylbicyclo[2.2.1]heptan-2-one] in this work.
A pIC50 [1] of over 7.00 and a pIC50 [2] of over 7.00 were found for COc1cc(C(=O)N2CCOCC2)ccc1-c1nc2c(N[C@H]3[C@@H](C(N)=O)[C@@H]4C=C[C@H]3C4)c(Cl)cnc2[nH]1 [Compound LXIII, (1S,2S,3R,4R)-3-{6-Chloro-2-[2-methoxy-4-(morpholine-4-carbonyl)-phenyl]-3H-imidazo[4,5-b]pyridine-7-ylamino}-bicyclo[2.2.1]hept-5-ene-2-carboxylic acid amide] in this work.
A pIC50 [1] of 6.00 to 7.00 and a pIC50 [2] of 5.00 to 6.00 were found for CC(C)NC(=O)[C@@H]1[C@H](Nc2c(Cl)cnc3[nH]c(-c4sc(N5CCCC5)nc4Cl)nc23)[C@H]2C=C[C@@H]1C2 [Compound CLXV, (1S,2S,3R,4R)-3-[6-Chloro-2-(4-chloro-2-pyrrolidin-1-yl-thiazol-5-yl)-3H-imidazo[4,5-b]pyridin-7-ylamino]-bicyclo[2.2.1]hept-5-ene-2-carboxylic acid isopropylamide] in this work.
A pIC50 [1] of over 7.00 and a pIC50 [2] of over 7.00 were found for CN(C)C(=O)[C@@H]1[C@H](Nc2c(Cl)cnc3[nH]c(-c4sc(N5CCCC5)nc4Cl)nc23)[C@H]2C=C[C@@H]1C2 [Compound CLXIV, (1S,2S,3R,4R)-3-[6-Chloro-2-(4-chloro-2-pyrrolidin-1-yl-thiazol-5-yl)-3H-imidazo[4,5-b]pyridin-7-ylamino]-bicyclo[2.2.1]hept-5-ene-2-carboxylic acid dimethylamide] in this work.
A pIC50 ([1]; 1 μM ATP (Km level)) of under 5.00 and a pIC50 [2] of under 5.00 were found for NC(=O)[C@@H]1[C@H](Nc2c(Cl)cnc3[nH]c(C4CCCNC4)nc23)[C@H]2C=C[C@@H]1C2 (single isomer, unassigned) [XIV] in this work.
A pIC50 [1] of under 5.00 and a pIC50 [2] of 5.00 to 6.00 were found for COc1cc(N2CCOCC2)ccc1-c1nc2c(N3C[C@@H]4C[C@H]3CN4C(=O)OC(C)(C)C)c(Cl)cnc2[nH]1 [Compound XXXVI, (1S,4S)-5-[6-Chloro-2-(2-methoxy-4-morpholinj-4-yl-phenyl)-3H-imidazol-[4,5-b]pyridine-7-yl]-2,5-diaza-bicyclo[2.2.1]heptane-2-carboxylic acid tert-butyl ester] in this work.
A pIC50 [1] of 6.00 to 7.00 and a pIC50 [2] of over 7.00 were found for NC(=O)[C@@H]1[C@H](Nc2c(Cl)cnc3[nH]c(-c4cccc(O)c4)nc23)[C@H]2C=C[C@@H]1C2 [Compound CCXXXIII, (1S,2S,3R,4R)-3-(6-chloro-2-(3-hydroxyphenyl)-3H-imidazo[4,5-b]pyridin-7-ylamino)pyridin[2.2.1]hept-5-ene-2-carboxamide] in this work.
A pIC50 [1] of over 7.00 and a pIC50 [2] of over 7.00 were found for NC(=O)[C@@H]1[C@H](Nc2c(Cl)cnc3[nH]c(-c4cccc(CN5CCOCC5)c4)nc23)[C@H]2C=C[C@@H]1C2 [Compound XVI, (1S,2S,3R,4R)-3-[6-Chloro-2-(3-morpholin-4-ylmethyl-phenyl)-3H-imidazo[4,5-b]pyridin-7-ylamino]-bicyclo[2.2.1]hept-5-ene-2-carboxylic acid amide trifluoroacetic acid salt] in this work.
A pIC50 [1] of 6.00 to 7.00 and a pIC50 [2] of over 7.00 were found for NC(=O)[C@@H]1[C@H](Nc2c(Br)cnc3[nH]c(-c4ccnc(N5CCOCC5)c4)nc23)[C@H]2C=C[C@@H]1C2 [Compound CXXXVI, (1S,2S,3R,4R)-3-[6-Bromo-2-(2-morpholin-4-yl-pyridin-4-yl)-3H-imidazo[4,5-b]pyridin-7-ylamino]-bicyclo[2.2.1]hept-5-ene-2-carboxylic acid amide] in this work.
A pIC50 [1] of 6.00 to 7.00 and a pIC50 [2] of over 7.00 were found for NC(=O)[C@@H]1[C@H](Nc2c(Br)cnc3[nH]c(-c4cccc(F)c4)nc23)[C@H]2C=C[C@@H]1C2 [Compound CXXXII, (1S,2S,3R,4R)-3-[6-Bromo-2-(3-fluoro-phenyl)-3H-imidazo[4,5-b]pyridin-7-ylamino]-bicyclo[2.2.1]hept-5-ene-2-carboxylic acid amide] in this work.
A pIC50 [1] of 6.00 to 7.00 and a pIC50 [2] of over 7.00 were found for COc1ccccc1Nc1nc2c(N[C@H]3[C@@H](C(N)=O)[C@@H]4C=C[C@H]3C4)c(Cl)cnc2[nH]1 [Compound LXVIII, (1S,2S,3R,4R)-3-[6-Chloro-2-(2-methoxy-phenylamino)-3H-imidazo[4,5-b]pyridine-7-ylamino]-bicyclo[2.2.1]hept-5-ene-2-carboxylic acid amide] in this work.
A pIC50 [1] of over 7.00 and a pIC50 [2] of over 7.00 were found for Cc1cc(N2CCOCC2)ccc1-c1nc2c(N[C@H]3[C@@H](C(N)=O)[C@@H]4C=C[C@H]3C4)c(Br)cnc2[nH]1 [Compound CXXX, (1S,2S,3R,4R)-3-[6-Bromo-2-(2-methyl-4-morpholin-4-yl-phenyl)-3H-imidazo[4,5-b]pyridin-7-ylamino]-bicyclo[2.2.1]hept-5-ene-2-carboxylic acid amide] in this work.
A pIC50 [1] of over 7.00 and a pIC50 [2] of over 7.00 were found for C[C@H](O)CN1CCC(n2cc(-c3nc4c(N[C@H]5[C@@H](C(N)=O)[C@@H]6C=C[C@H]5C6)c(Cl)cnc4[nH]3)cn2)CC1 [Compound LIX, (1S,2S,3R,4R)-3-(6-Chloro-2-{1-[1((S)-2-hydroxypropyl)-piperidin-4-yl]-1H-pyrazol-4-yl}-3H-imidazo[4,5-b]pyridine-7-ylamino)-bicyclo[2.2.1]hept-5-ene-2-carboxylic acid amide] in this work.
A pIC50 [1] of over 7.00 and a pIC50 [2] of over 7.00 were found for CN(C)CCNC(=O)c1ccc(-c2nc3c(N[C@H]4[C@@H](C(N)=O)[C@@H]5C=C[C@H]4C5)c(Cl)cnc3[nH]2)cc1 [Compound CCXXXII, (1S,2S,3R,4R)-3-{6-Chloro-2-[4-(2-dimethylamino-ethylcarbamoyl)-phenyl]-3H-imidazo[4,5-b]pyridine-7-ylamino}-bicyclo[2.2.1]hept-5-ene-2-carboxylic acid amide] in this work.
A pIC50 [1] of over 7.00 and a pIC50 [2] of over 7.00 were found for CN(C)c1nc(Cl)c(-c2nc3c(N[C@H]4[C@@H](C(N)=O)[C@@H]5C=C[C@H]4C5)c(Br)cnc3[nH]2)s1 [Compound CLV, (1S,2S,3R,4R)-3-[6-Bromo-2-(4-chloro-2-dimethylamino-thiazol-5-yl)-3H-imidazo[4,5-b]pyridin-7-ylamino]-bicyclo[2.2.1]hept-5-ene-2-carboxylic acid amide] in this work.
